This note sets out measurements from patent US20260374773A1, “MULTI-CYCLIC IRAK AND FLT3 INHIBITING COMPOUNDS AND USES THEREOF” (CHILDREN'S HOSPITAL MEDICAL CENTER, priority 2022, published 2026).

The test system of the first assay is MOLM14 D835Y cells. In words: MOLM14 D835Y cell viability (Cell Titer Glo). It counts as cell-based. The settings on record: Homo sapiens, MOLM-14, Table 16, 48 h. As to the method: Both cell lines have activated FLT3 receptors, each of which carry additional resistance mutations in the kinase domain (D835Y and F691L, respectively).
(§1) MOLM14 D835Y and MOLM14 F691L cells were grown in RPMI-1640 media supplemented with 20% fetal bovine serum (FBS). For viability/cytotoxicity assessments, cells were seeded into 1536-well white polystyrene tissue culture-treated Greiner plates using a Multidrop Combi dispenser (ThermoFisher), in final volume 5 μL of growth media per well, at a density of 1000 cells per well. After cell addition, 23 nL of test compound were transferred into individual wells (22 doses tested for each test compound, with a 1:2 dilution series starting at 10 μM) via a 1536 pin-tool. Bortezomib (final concentration 2.3 μM) was used as a positive control for cell cytotoxicity. Plates were incubated for 48 hours at standard incubator conditions covered by a stainless steel gasketed lid to prevent evaporation. 48 hours post compound addition, 3 μL of Cell Titer Glo (Promega) were added to each well and plates were incubated at room temperature for 15 minutes with the stainless-steel lid in place. Luminescence readings were taken using a Viewlux imager (PerkinElmer) with a 2 second exposure time per plate.
This cell line has activated FLT3 receptors, which carries an additional resistance mutation in the kinase domain at D835Y.
as §1, with “D835Y” for “D835Y and MOLM14 F691L”, “mL” for “μL”, “mM)” for “μM)”
For the compound `COc1cn2ncc(-c3nc(N[C@@H]4CCCNC4)ccc3F)c2nc1C1CC1` [Compound 2, (R)-6-(5-cyclopropyl-6-methoxypyrazolo[1,5-a]pyrimidin-3-yl)-5-fluoro-N-(piperidin-3-yl)pyridin-2-amine], the half-maximal inhibitory concentration (IC50) is 2 nM.

`COc1cn2ncc(-c3nc(N[C@H]4CNCC[C@@H]4F)ccc3F)c2nc1C1CC1` [Compound 3, 6-(5-cyclopropyl-6-methoxypyrazolo[1,5-a]pyrimidin-3-yl)-5-fluoro-N-((3S,4S)-4-fluoropiperidin-3-yl)pyridin-2-amine]: the IC50 was determined as 2 nM.

`COc1cn2ncc(-c3ccc(F)c(N[C@@H]4CCCNC4)n3)c2nc1C1CC1` [Compound 5, (R)-6-(5-cyclopropyl-6-methoxypyrazolo[1,5-a]pyrimidin-3-yl)-3-fluoro-N-(piperidin-3-yl)pyridin-2-amine] had an IC50 of 20 nM.

With `COc1cn2ncc(-c3ccc(F)c(N[C@H]4CNCC[C@@H]4F)n3)c2nc1C1CC1` [Compound 6, 6-(5-cyclopropyl-6-methoxypyrazolo[1,5-a]pyrimidin-3-yl)-3-fluoro-N-((3S,4S)-4-fluoropiperidin-3-yl)pyridin-2-amine], half-maximal inhibition (IC50) was put at 11 nM.

Regarding `COc1cn2ncc(-c3nc(N[C@@H]4CCCNC4)c(C#N)cc3F)c2nc1C(C)(C)O` [Compound 9, (R)-5-fluoro-6-(5-(2-hydroxypropan-2-yl)-6-methoxypyrazolo[1,5-a]pyrimidin-3-yl)-2-(piperidin-3-ylamino)nicotinonitrile], the IC50 amounted to 16 nM.

Turning to `COc1cn2ncc(-c3nc(N[C@@H]4CCCNC4)c(F)cc3F)c2nc1C(C)(C)O` [Compound 11, (R)-2-(3-(3,5-difluoro-6-(piperidin-3-ylamino)pyridin-2-yl)-6-methoxypyrazolo[1,5-a]pyrimidin-5-yl)propan-2-ol], the IC50 stood at 13 nM.

The compound `COc1cn2ncc(-c3nc(N[C@H]4CNC[C@@H]4F)c(F)cc3F)c2nc1C(C)(C)O` [Compound 12, 2-(3-(3,5-difluoro-6-(((3S,4S)-4-fluoropyrrolidin-3-yl)amino)pyridin-2-yl)-6-methoxypyrazolo[1,5-a]pyrimidin-5-yl)propan-2-ol] showed an IC50 of 32 nM.

In turn, `COc1cn2ncc(-c3nc(N[C@H]4CNCC[C@@H]4F)c(F)cc3F)c2nc1C(C)(C)O` [Compound 13, 2-(3-(3,5-difluoro-6-(((3S,4S)-4-fluoropiperidin-3-yl)amino)pyridin-2-yl)-6-methoxypyrazolo[1,5-a]pyrimidin-5-yl)propan-2-ol] displayed an IC50 of 14 nM.

In the case of `COc1cn2ncc(-c3cccc(N[C@H]4CNC[C@@H]4F)n3)c2nc1C1CC1` [Compound 19, 6-(5-cyclopropyl-6-methoxypyrazolo[1,5-a]pyrimidin-3-yl)-N-((3S,4S)-4-fluoropyrrolidin-3-yl)pyridin-2-amine], the IC50 is 58 nM.

Consider `COc1cn2ncc(-c3cccc(N[C@@H]4CCCNC4)n3)c2nc1C1CC1` [Compound 20, (R)-6-(5-cyclopropyl-6-methoxypyrazolo[1,5-a]pyrimidin-3-yl)-N-(piperidin-3-yl)pyridin-2-amine], for which the IC50 came out at 41 nM.

For `COc1cn2ncc(-c3cccc(N[C@H]4CNCC[C@@H]4F)n3)c2nc1C1CC1` [Compound 21, 6-(5-cyclopropyl-6-methoxypyrazolo[1,5-a]pyrimidin-3-yl)-N-((3S,4S)-4-fluoropiperidin-3-yl)pyridin-2-amine], the IC50 was 46 nM.

`COc1cn2ncc(-c3nc(N[C@H]4CNCC[C@@H]4F)c(F)cc3F)c2nc1C1CC1` [Compound 22, 6-(5-cyclopropyl-6-methoxypyrazolo[1,5-a]pyrimidin-3-yl)-3,5-difluoro-N-((3S,4S)-4-fluoropiperidin-3-yl)pyridin-2-amine] displayed an IC50 of 2 nM.

Compound `COc1cn2ncc(-c3nc(N[C@H]4CNC[C@@H]4F)c(F)cc3F)c2nc1C1CC1` [Compound 24, 6-(5-cyclopropyl-6-methoxypyrazolo[1,5-a]pyrimidin-3-yl)-3,5-difluoro-N-((3S,4S)-4-fluoropyrrolidin-3-yl)pyridin-2-amine] returned an IC50 of 2 nM.

Still in this assay, the particulars now being: Homo sapiens, MOLM-14, Table 22, 48 h.
For the compound `COc1cn2ncc(-c3ccnc(N[C@H]4CNCC[C@@H]4F)n3)c2nc1C(C)(C)O` [Compound 3a, 2-(3-(2-(((3S,4S)-4-fluoropiperidin-3-yl)amino)pyrimidin-4-yl)-6-methoxypyrazolo[1,5-a]pyrimidin-5-yl)propan-2-ol], the midpoint of inhibition, the IC50, lay at 86 nM.

In turn, `COc1cn2ncc(-c3nc(N[C@@H]4CCCNC4)ncc3F)c2nc1C(C)(C)O` [Compound 4a, (R)-2-(3-(5-fluoro-2-(piperidin-3-ylamino)pyrimidin-4-yl)-6-methoxypyrazolo[1,5-a]pyrimidin-5-yl)propan-2-ol] yielded an IC50 of 11 nM.

As for `COc1cn2ncc(-c3nc(N[C@H]4CNC[C@@H]4F)ncc3F)c2nc1C(C)(C)O` [Compound 5a, 2-(3-(5-fluoro-2-(((3S,4S)-4-fluoropyrrolidin-3-yl)amino)pyrimidin-4-yl)-6-methoxypyrazolo[1,5-a]pyrimidin-5-yl)propan-2-ol], the midpoint of inhibition, the IC50, lay at 25 nM.

`COc1cn2ncc(-c3nc(N[C@H]4CNCC[C@@H]4F)ncc3F)c2nc1C(C)(C)O` [Compound 6a, 2-(3-(5-fluoro-2-(((3S,4S)-4-fluoropiperidin-3-yl)amino)pyrimidin-4-yl)-6-methoxypyrazolo[1,5-a]pyrimidin-5-yl)propan-2-ol] showed an IC50 of 5 nM.

For the compound `COc1cn2ncc(-c3ccnc(N[C@H]4CNCC[C@@H]4F)n3)c2nc1C1CC1` [Compound 7a, 4-(5-cyclopropyl-6-methoxypyrazolo[1,5-a]pyrimidin-3-yl)-N-((3S,4S)-4-fluoropiperidin-3-yl)pyrimidin-2-amine], the IC50 was found to be 7 nM.

Compound `COc1cn2ncc(-c3ccnc(N[C@H]4CNC[C@@H]4F)n3)c2nc1C1CC1` [Compound 8a, 4-(5-cyclopropyl-6-methoxypyrazolo[1,5-a]pyrimidin-3-yl)-N-((3S,4S)-4-fluoropyrrolidin-3-yl)pyrimidin-2-amine] returned a half-inhibitory concentration (IC50) of 26 nM.

In turn, `COc1cn2ncc(-c3cncc(N[C@@H]4CCCNC4)n3)c2nc1C1CC1` [Compound 11a, (R)-6-(5-cyclopropyl-6-methoxypyrazolo[1,5-a]pyrimidin-3-yl)-N-(piperidin-3-yl)pyrazin-2-amine] yielded an IC50 of 29 nM.

`COc1cn2ncc(-c3cncc(N[C@H]4CNCC[C@@H]4F)n3)c2nc1C1CC1` [Compound 12a, 6-(5-cyclopropyl-6-methoxypyrazolo[1,5-a]pyrimidin-3-yl)-N-((3S,4S)-4-fluoropiperidin-3-yl)pyrazin-2-amine]: the midpoint of inhibition, the IC50, lay at 12 nM.

The compound `COc1cn2ncc(-c3nc(N[C@H]4CNC[C@@H]4F)ncc3F)c2nc1C1CC1` [Compound 13a, 4-(5-cyclopropyl-6-methoxypyrazolo[1,5-a]pyrimidin-3-yl)-5-fluoro-N-((3S,4S)-4-fluoropyrrolidin-3-yl)pyrimidin-2-amine] had an IC50 of 4 nM.

`COc1cn2ncc(-c3nc(N[C@@H]4CCCNC4)ncc3F)c2nc1C1CC1` [Compound 14a, (R)-4-(5-cyclopropyl-6-methoxypyrazolo[1,5-a]pyrimidin-3-yl)-5-fluoro-N-(piperidin-3-yl)pyrimidin-2-amine] registered an IC50 of 1 nM.

`COc1cn2ncc(-c3nc(N[C@H]4CNCC[C@@H]4F)ncc3F)c2nc1C1CC1` [Compound 15a, 4-(5-cyclopropyl-6-methoxypyrazolo[1,5-a]pyrimidin-3-yl)-5-fluoro-N-((3S,4S)-4-fluoropiperidin-3-yl)pyrimidin-2-amine] came in with an IC50 of 2 nM.
